Consider 6 molecules from paper PMC6272192, “Synthesis and Biological Evaluation of N-Alkyl-3-(alkylamino)-pyrazine-2-carboxamides” (Molecules, 2015).

Converted amounts (≈) assume the structure as drawn. Read-outs that look alike come from different tables or passages of the source. Bounds are passed on as bounds.

In series [1] the test system is photosystem 2 photosynthetic electron transport (PET) in spinach chloroplasts. Nature of the series: inhibition of photosynthetic electron transport (PET) in spinach chloroplasts (Hill reaction, DCPIP). It counts as biochemical, Spinacia oleracea L. The settings on record: spinach chloroplasts, DCPIP photoreduction; read-out: IC50 (PET-inhibiting activity). How it is done:
Chloroplasts were prepared from spinach (Spinacia oleracea L.) according to Masarovicova and Kralova. The inhibition of photosynthetic electron transport (PET) in spinach chloroplasts was determined spectrophotometrically (Genesys 6, Thermo Electron Scientific Instruments, Madison, WI, USA), using an artificial electron acceptor 2,6-dichlorophenol-indophenol (DCPIP) according to Kralova et al., and the rate of photosynthetic electron transport (PET) was monitored as a photoreduction of DCPIP. The measurements were carried out in phosphate buffer (0.02 mol/L, pH 7.2) containing sucrose (0.4 mol/L), MgCl2 (0.005 mol/L) and NaCl (0.015 mol/L). The chlorophyll content was 30 mg/L in these experiments and the samples were irradiated (~100 W/m^2 with 10 cm distance) with a halogen lamp (250 W) using a 4 cm water filter to prevent warming of the samples (suspension temperature 22 °C). The studied compounds were dissolved in DMSO due to their limited water solubility. […] The inhibitory efficiency of the studied compounds was expressed by IC50 values, i.e., by molar concentration of the compounds causing 50% PET inhibition relative to the untreated control.

In a further series the test system is M. tuberculosis H37Rv. Nature of the series: in vitro antimycobacterial activity, microdilution panel method. In kind it is cell-based, Mycobacterium tuberculosis. The note with it: Mycobacterium tuberculosis, 336 h, Middlebrook 7H9, Alamar Blue after 14 days, read-out: MIC M. tuberculosis. On the technique in general: Broth dilution looks for growth in wells or tubes with falling amounts of substance.

Another series relates to Vero cells. In words: in vitro cytotoxicity assay (MCC). In kind it is cell-based, African Green Monkey. The note with it: highest tested concentration 100 µmol/L.
Series [2] in a line: determination of lipophilicity by HPLC (log k). The settings on record: HPLC capacity factor, C18 column, MeOH 70% / H2O 30%.
Source text: Instrumentation: Agilent Technologies 1200 SL liquid chromatograph with Diode-array Detector SL G1315C (Agilent Technologies Inc., Colorado Springs, CO, USA); pre-column ZORBAX XDB-C18 5 μm, 4 × 4 mm, Part No. 7995118-504 (Agilent Technologies Inc.) and column ZORBAX Eclipse XDB-C18 5 μm, 4.6 × 250 mm, Part No. 7995118-585 (Agilent Technologies Inc.). The separation process was controlled by Agilent ChemStation, version B.04.02 extended by spectral module (Agilent Technologies Inc.). Mobile phase consisted of MeOH (HPLC grade, 70%) and H2O (HPLC-Milli-Q Grade, 30%). Conditions: Flow rate 1.0 mL/min, sample injection volume 20 μL, column temperature 30 °C, detection wavelength 210 nm, monitor wavelength 270 nm. Retention times (tR) were measured in minutes. The dead time of the system (tD) was determined as the retention time of KI methanol solution. Capacity factors k for individual compounds were calculated according to the formula k = (tR − tD)/tD. Log k, calculated from the capacity factor k, is used as the lipophilicity index converted to log scale.
Series [3] concerns aromatic amino acids in spinach chloroplasts. Nature of the series: fluorescence of aromatic amino acids in spinach chloroplasts. In kind it is biochemical, Spinacia oleracea L. The note with it: excitation 275 nm, chlorophyll 10 mg/L. The method, then:
The fluorescence emission spectra of aromatic amino acids (AAA) in spinach chloroplasts were recorded on fluorescence spectrophotometer F-2000 (Hitachi, Tokyo, Japan) using excitation wavelength λex = 275 nm for monitoring AAA fluorescence, excitation slit 20 nm and emission slit 10 nm. The samples were kept in the dark for 2 min before measuring. The phosphate buffer used for dilution of the chloroplast suspension was the same as described above. Due to low aqueous solubility the compounds were added to chloroplast suspension in DMSO solution. The DMSO concentration in all samples was the same as in the control (10%). The chlorophyll concentration in chloroplast suspension was 10 mg/L.

Series [4] relates to photosystem 2 photosynthetic electron transport (PET) in spinach chloroplasts. Also noted: method as in doi:10.3139/113.110079. The note with it: literature surfactants; read-out: IC50 related to PET inhibition; cited from earlier work.
The subject of a further series is Staphylococcus aureus. In words: in vitro antibacterial activity, microdilution broth method. In kind it is cell-based. How it is done:
Microdilution broth method. Antibacterial evaluation was performed against bacterial strains from Czech Collection of Microorganisms (Brno, Czech Republic) (Staphylococcus aureus CCM 4516/08, Escherichia coli CCM 4517, Pseudomonas aeruginosa CCM 1961) or clinical isolates from Department of Clinical Microbiology, University Hospital and Faculty of Medicine in Hradec Králové, Charles University in Prague, Czech Republic (Staphylococcus aureus H 5996/08-methicilin resistant (MRSA), Staphylococcus epidermidis H 6966/08, Enterococcus sp. J 14365/08, Klebsiella pneumoniae D 11750/08, Klebsiella pneumoniae J 14368/08-ESBL positive). All strains were subcultured on Mueller-Hinton agar (MHA) (Difco/Becton Dickinson, Detroit, MI, USA) at 35 °C and maintained on the same medium at 4 °C. The compounds were dissolved in DMSO, and the antibacterial activity was determined in Mueller-Hinton liquid broth (Difco/Becton Dickinson), buffered to pH 7.0. Controls consisted of medium and DMSO alone. […] The standards were neomycin, bacitracin, penicillin G, ciprofloxacin and phenoxymethylpenicilin.

`CCCCCCCCNC(=O)c1nccnc1NCCCCCCCC` [Compound 30, N-Octyl-3-(octylamino)pyrazine-2-carboxamide]: in series [1], the IC50 stood at 752 µM. Further, the MIC in the series with M. tuberculosis H37Rv is greater than 100 µg/mL. For the same molecule, the “minimum compound concentration (MCC) causing microscopically detectable alteration of normal cell morphology” value in the series on Vero cells was found to be 100 µmol/L. In series [2], this molecule came in with a log k of 2.981.
Take `CCCCCNC(=O)c1nccnc1NCCCCC` [Compound 27, N-Pentyl-3-(pentylamino)pyrazine-2-carboxamide]: the IC50 in series [1] amounted to 105 µM. The MIC in the series with M. tuberculosis H37Rv was greater than 100 µg/mL. Moreover, in series [2], the log k was 1.557. The “slope of dependence of aromatic amino acid fluorescence intensity (% of control) on compound concentration” value in series [3] is −0.211.
For `CCCCCCCCC[N+](C)(C)CCNC(=O)CCC(=O)NCC[N+](C)(C)CCCCCCCCC` [3,8-diaza-4,7-dioxodecane-1,10-diylbis(nonyldimethyl)ammonium bromide], in series [4], the IC50 was 1740 µM.
As to `CN(C)CCNC(=O)C(=O)NCCN(C)C` [N,N'-bis(2-dimethylaminoethyl)ethanediamide], the IC50 in series [4] is 4000 µM.
Regarding `CCCCCCCCNc1nccnc1C(=O)NC` [Compound 16, N-Methyl-3-(octylamino)pyrazine-2-carboxamide], in series [1], the IC50 was found to be 64 µM. Besides, the MIC was 25 µg/mL (≈ 94.6 µM) in the series on M. tuberculosis H37Rv and 250 µM (≈ 66.1 µg/mL) against Staphylococcus aureus. In series [2], this molecule yielded a log k of 1.359. Besides, the “slope of dependence of aromatic amino acid fluorescence intensity (% of control) on compound concentration” value in series [3] is reported as −0.668.
Regarding `CCCCCCNC(=O)c1nccnc1NCCCCCC` [Compound 28, N-Hexyl-3-(hexylamino)pyrazine-2-carboxamide], the IC50 in series [1] amounted to 272 µM. Also, the MIC with M. tuberculosis H37Rv is greater than 100 µg/mL. Moreover, the “minimum compound concentration (MCC) causing microscopically detectable alteration of normal cell morphology” value with Vero cells is given as greater than 4 µmol/L. The log k in series [2] was determined as 2.041.

In general, IC50 refers to the concentration that inhibits the measured activity by half. A word on the MIC: it is the least concentration at which growth counts as inhibited.
